Experimental findings from the METLIN SMRT retention time set (Domingo-Almenara et al. 2019) are described below.

The nature of the series: gradient 5% acetonitrile 3 min, to 50% in 2 min, to 85% in 15 min, held 3 min, 100 µL/min. The conditions noted are these: column: Zorbax Extend-C18 2.1 x 50 mm; eluents: water / acetonitrile, 0.1% formic acid. A digest of the protocol:
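Mixtures of ~100 pure standards were chromatographed on a Zorbax Extend-C18 column (2.1 × 50 mm, 1.8 μm) at 100 μL/min using water and acetonitrile, each with 0.1% formic acid. Detection used a quadrupole time-of-flight mass spectrometer in positive and negative ionization mode, and data collection spanned 3 months. Retention time was obtained from adduct peaks picked computationally and each checked manually.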
On to `O=S(=O)(c1ccc(-c2noc(-c3ccccc3F)n2)cc1)N1CCCC1`, for which the RP-LC retention time is 1100 s.

Molecule `COc1cc([C@@H]2c3cc4c(cc3[C@H](O)[C@@H](CO)[C@@H]2C(=O)NCc2cc(F)ccc2F)OCO4)cc(OC)c1OC` registered an RP-LC retention time of 718 s.

As to `Cc1c(S(=O)(=O)N2CCN(c3ccccn3)CC2)cc(-c2nc(-c3ccccc3)cs2)n1C`, the RP-LC retention time worked out at 885 s.

Regarding `COc1ccc(-c2cn3ccn(-c4ccc(Br)cc4)c(=O)c3n2)cc1OC`, the RP-LC retention time was found to be 795 s.

For `COCC(=O)N1CCc2c(c(-c3nnc(-c4ccccc4Cl)o3)nn2C)C1`, the RP-LC retention time turned out to be 689 s.

With `O=C(N1CCc2ccccc2C1)C1(c2ccccc2)CCOCC1`, the RP-LC retention time was determined as 891 s.

As to `Cc1ccc(N2C(=O)CN(S(C)(=O)=O)CC2(C)C(=O)NC2CCCCCC2)cc1F` (stereo not drawn), the RP-LC retention time came out at 905 s.

Turning to `CCc1nc2cc(-c3noc(-c4ccc(OC)c(F)c4)n3)ccc2o1`, the RP-LC retention time is 1170 s.

Molecule `CN(C)C(=O)c1ccc(-c2nnc3ccc(NC(=O)C4CCC4)cn23)cc1` had an RP-LC retention time of 664 s.

For the molecule `COc1ccc(S(=O)(=O)N2CCC(c3nc(C(=O)N(C)C)c(C)o3)CC2)cc1Cl`, the RP-LC retention time stood at 806 s.

`Cc1ccc(-c2nnc(-c3nc(NCCc4cccs4)c4ccccc4n3)o2)cc1`: the RP-LC retention time was found to be 1120 s.

Molecule `CCCCOc1ccc(NC(=O)NCCN2CCN(S(C)(=O)=O)CC2)cc1` came in with an RP-LC retention time of 600 s.

Consider `O=C(Nc1nc(-c2ccc(Br)cc2)cs1)c1cccc(-n2cnnc2)n1`, for which the RP-LC retention time was determined as 884 s.

As to `CCOc1ccc(NC(=O)c2c(O)c3cccnc3n(-c3ccc(F)cc3)c2=O)cc1`, the RP-LC retention time was 1280 s.

As to `COc1ccc(C(=O)Nc2cccn3cnnc23)cc1F`, the RP-LC retention time was found to be 676 s.

Regarding `Cc1ccc(-c2noc(Cc3nnc(-c4ccc(C)c(F)c4)o3)n2)cc1C`, the RP-LC retention time turned out to be 1210 s.

`O=C(Cn1cccc1-c1nc(-c2ccccc2)cs1)N1CCN(C(=O)c2ccco2)CC1` registered an RP-LC retention time of 899 s.

For `Cc1cccc2nc(-c3ccc(N(C)C)cc3)c(Nc3ccc4c(c3)OCO4)n12`, the RP-LC retention time amounted to 747 s.

`COC(=O)c1ccccc1NC(=O)N1CCOc2ccc(C)cc21` came in with an RP-LC retention time of 1140 s.

As to `CCCNC(=O)c1cc(=O)[nH]c2ccccc12`, the RP-LC retention time turned out to be 620 s.

The molecule `O=C(Nc1cc(Cl)ccc1F)c1cnc(-c2ccc(F)cc2)nc1-c1ccncc1` yielded an RP-LC retention time of 1050 s.

As for `COC(=O)c1ccc(OC)c(Cn2cnc3c(-c4ccccc4)csc3c2=O)c1`, the RP-LC retention time is 988 s.

Turning to `Cc1cccc(OCc2nc(CCN(C)C(=O)NC3CCCC3)no2)c1`, the RP-LC retention time worked out at 894 s.

`CC(=O)NCc1nc2ccccc2n1CC(=O)Nc1ccccc1`: the RP-LC retention time stood at 600 s.

As to `O=C(NCc1ccc2c(c1)N(C(=O)c1ccc(Cl)cc1)CC2)C1CC1`, the RP-LC retention time was found to be 824 s.

`CCOC(=O)c1ccc(Nc2c(-c3ccc(SC)cc3)nc3cnccn23)cc1` displayed an RP-LC retention time of 943 s.

On to `Cc1c(S(=O)(=O)NCc2ccccc2)c(C)n(C)c1-c1nnc(C2CCC2)o1`, for which the RP-LC retention time amounted to 972 s.

`COCc1cc(=O)n(CC(=O)Nc2ccc(Cl)cc2)c(N2CCOCC2)n1` had an RP-LC retention time of 865 s.

`CCn1cc(CN2CCn3c(nnc3[C@@H]3C[C@@H](O)CN3Cc3cccnc3)C2)c(C)n1` came in with an RP-LC retention time of 513 s.

In turn, `COc1ccc(C)cc1NC(=O)C(C)C1CCN(C(=O)Nc2ccc(Cl)cc2)CC1` (stereo not drawn) gave an RP-LC retention time of 986 s.

In turn, `Cc1ccc2cc(CCC(=O)NCc3ccc(N4CCOCC4)cc3)c(=O)[nH]c2c1` had an RP-LC retention time of 655 s.

The molecule `CN(Cc1cnc2nc(N)nc(N)c2n1)c1ccc(C(=O)NC(CCC(=O)O)C(=O)O)cc1` (stereo not drawn) showed an RP-LC retention time of 666 s.

Molecule `Cc1cc(NC(=O)c2csc(-c3cn(C)c4ncccc34)n2)ccc1F` yielded an RP-LC retention time of 1050 s.

Molecule `O=C(c1ccc(Cn2cncn2)cc1)N1CCc2ccccc2C1` had an RP-LC retention time of 687 s.

Molecule `Cc1ccc2nc(CN3CCN(C(=O)Nc4ccc(F)cc4F)CC3)oc2c1` yielded an RP-LC retention time of 706 s.

`CCc1ccc(NC(=O)Nc2ccc(NC(=O)N3CCCC(C(=O)NC)C3)cc2)cc1` (stereo not drawn) gave an RP-LC retention time of 730 s.

As for `COc1ccc(NC(=O)NCCn2c(-c3ccncc3)nc3cccnc32)cc1`, the RP-LC retention time came to 608 s.

Molecule `CC1=C(C(=O)Nc2ccc(C(=O)NCCCN3CCN(C4CCCCC4)CC3)cc2)SCCO1` yielded an RP-LC retention time of 576 s.

Consider `O=C(NCc1ccccc1)C1CCCN(S(=O)(=O)c2c[nH]c(C(=O)N3CCCCCC3)c2)C1` (stereo not drawn), for which the RP-LC retention time is 826 s.

For the molecule `O=C(COc1ccc(Cl)cc1)Nc1nc(-c2ccc(S(=O)(=O)N3CCOCC3)cc2)cs1`, the RP-LC retention time was 1040 s.

`COc1ccc(OC)c(CNC(=O)C2CCN(c3ccc4nncn4n3)CC2)c1` displayed an RP-LC retention time of 680 s.

`O=C(COc1cc(O)c2c(=O)cc(-c3ccccc3)oc2c1)OCc1ccccc1` registered an RP-LC retention time of 1200 s.

As for `CCn1cc(C(=O)Nc2cccc(C)c2)c(S(=O)(=O)N2CCSCC2)n1`, the RP-LC retention time was determined as 902 s.

Turning to `Cc1ccc(NC(=O)CSc2nccc(N3CCN(c4cc(C)ccc4C)CC3)n2)c(Cl)c1`, the RP-LC retention time was 1190 s.

Take `COC(=O)c1ccc(NC(=O)C(=O)NCCc2ccc(N3CCCC3)cc2)cc1`: the RP-LC retention time stood at 910 s.

In turn, `COc1ccc(-c2nnc(-c3ccc(C)c(S(=O)(=O)N4CCCCC4)c3)o2)cc1` displayed an RP-LC retention time of 1120 s.

The molecule `CCn1c(=O)c(N2CCC(NC(=O)Nc3ccc(OC)c(OC)c3)CC2)nc2ccccc21` gave an RP-LC retention time of 785 s.

For the molecule `O=C1CCCC2=C1C(c1ccco1)N(C(=O)CCC(=O)N1CCOCC1)c1ccccc1N2` (stereo not drawn), the RP-LC retention time amounted to 648 s.

On to `COCCNC(=O)C1CCN(C2=NS(=O)(=O)C(c3ccc(Cl)cc3)=C2C)CC1`, for which the RP-LC retention time worked out at 725 s.

On to `O=C(c1cc2c(s1)CCC(C(=O)N1CCN(C3CCCC3)CC1)C2)N1CCCC1` (stereo not drawn), for which the RP-LC retention time was 606 s.

In turn, `Cc1ccccc1Oc1nccn2c(=O)n(CC(=O)Nc3ccccc3)nc12` showed an RP-LC retention time of 856 s.

Molecule `CCOC(=O)c1cccc(Nc2c(-c3ccc(C(=O)OC)cc3)nc3cnccn23)c1` came in with an RP-LC retention time of 902 s.

As for `Cc1cccc(NC(=O)C2CCc3nc(N4CCOCC4)ncc3C2)c1C` (stereo not drawn), the RP-LC retention time stood at 698 s.

`CCOC(=O)CC1C(=O)NCCN1C(=O)COc1ccc(Br)cc1C` (stereo not drawn) displayed an RP-LC retention time of 797 s.

`CC(=O)N[C@@H]1CN(C(=O)Cc2cccc3ccccc23)C[C@H]1CO` returned an RP-LC retention time of 637 s.

In turn, `O=C(c1ccc(-c2csc(C3CC3)n2)cc1)N1CCCCCC1` came in with an RP-LC retention time of 1070 s.

Turning to `CS(=O)(=O)Nc1ccc(-c2noc(COc3ccc(Cl)cc3)n2)cc1`, the RP-LC retention time was 974 s.

With `COCc1noc([C@@H]2CC(F)(F)CN2C(=O)C(C)C)n1`, the RP-LC retention time worked out at 711 s.

In the case of `COc1ccc(S(=O)(=O)c2cnc3cc4c(cc3c2N2CCN(C)CC2)OCCO4)cc1`, the RP-LC retention time was 608 s.

Take `CCOc1ccccc1-c1noc(Cn2c(=O)n(C(C)C)c(=O)c3ccccc32)n1`: the RP-LC retention time was found to be 1090 s.

Molecule `CN(CCc1noc(COc2ccccc2)n1)C(=O)c1c(F)cccc1F` gave an RP-LC retention time of 872 s.

For the molecule `Cc1cc(Cl)ccc1N1C(=O)CN(S(C)(=O)=O)CC1(C)C(=O)NC1CCCCCCC1` (stereo not drawn), the RP-LC retention time was determined as 1010 s.

On to `O=S(=O)(c1ccc2nc(N3CCN(c4ccccc4)CC3)ccc2c1)N1CCCC1`, for which the RP-LC retention time stood at 921 s.

`CCCn1c(=O)c(C)nc2cc(-c3noc(-c4ccc(Br)o4)n3)ccc21`: the RP-LC retention time was determined as 1160 s.

As for `CCc1ccccc1NC(=O)N1C[C@@H](F)C[C@H]1C(=O)N1CCc2ccccc2C1`, the RP-LC retention time came to 811 s.

`CCOc1ccc(NC(=O)N(C)CC2CCOCC2)cc1` showed an RP-LC retention time of 719 s.

In the case of `COC(=O)c1ccccc1NC1=NS(=O)(=O)C(c2ccc(F)cc2)=C1C`, the RP-LC retention time amounted to 1050 s.

Molecule `CCCC(C)C(=O)NC1CCN(C2=NS(=O)(=O)C(c3ccc(C)c(C)c3)=C2C)CC1` (stereo not drawn) showed an RP-LC retention time of 927 s.

`O=C(c1ccc2c(c1)OCO2)N1CCC(n2nc(-c3ccsc3)ccc2=O)CC1` came in with an RP-LC retention time of 764 s.

`Cc1cc(S(=O)(=O)NCCc2cn(C)c3ncccc23)ccc1F` had an RP-LC retention time of 745 s.

For the molecule `COc1cc(OC)c(NC(=O)N2CCC(n3cnc4cccnc43)CC2)cc1Cl`, the RP-LC retention time worked out at 670 s.

Take `COCCc1noc(-c2ccc(=O)n(CC(=O)Nc3ccccc3)c2)n1`: the RP-LC retention time came to 695 s.

Molecule `COC(=O)c1ccc(NC(=O)N2CCCC2c2cc(C(C)C)no2)cc1` (stereo not drawn) returned an RP-LC retention time of 845 s.

As for `COc1ccc2c(C)c(CCC(=O)N3CCC(C(N)=O)CC3)c(=O)oc2c1C`, the RP-LC retention time turned out to be 670 s.

For the molecule `Cc1cc(C)cc(NC(=O)Cn2nc(N3CCOCC3)c3ccccc3c2=O)c1`, the RP-LC retention time came out at 840 s.

With `Cc1ccc(NC(=O)N2CCC(c3nc(CCNC(=O)C(C)C)cs3)CC2)cc1`, the RP-LC retention time came out at 750 s.

Molecule `O=C(NCC1CC1)c1cccc(N2CCNC(c3ccccc3)C2)n1` (stereo not drawn) showed an RP-LC retention time of 619 s.

As for `O=C(Cn1nc(C(=O)N2CCCC2)c2ccccc21)NCCc1cccs1`, the RP-LC retention time came out at 775 s.
